{
  "source": "patent US20260159519A1",
  "about": "“IMIDAZOPYRIDAZINE SUBSTITUTED BENZENE RING DERIVATIVE, PREPARATION METHOD, PHARMACEUTICAL COMPOSITION AND USE” (SHANGHAI SIMR BIOTECHNOLOGY CO., LTD., priority 2022, published 2026)",
  "data": [
    {"test_system": "Chinese hamster ovary cells (CHO-WBL cells)", "experiment": "In vitro micronucleus assay", "format": "cell-based", "settings": "3-hour treatment with S9, 3-hour and 24-hour treatment without S9; overall judgment", "description": "The experimental design is based on the experimental purpose and follows the following experimental design guidelines: • (1) OECD Guidelines for the Testing of Chemicals 487, In Vitro Mammalian Cell Micronucleus Test, revised in 2016; • (2) ICH S2 (R1): Guideline on Genotoxicity Testing and Data Interpretation for Pharmaceuticals Intended for Human Use, validated in November 2011.\nExperimental system and selection rationale: Chinese hamster ovary cells (CHO-WBL cells) were used as an experimental system in this experiment. The cell line has a karyotype containing 21 chromosomes and a growth cycle of 12 to 13 hours. CHO-WBL cells were originally derived from Dr. S. Wolff at the University of California in San Francisco, USA, then cloned in the laboratory of Dr. A. Bloom at Columbia University in New York, and cloned again by Dr. S. Galloway at Litton Bionetics Laboratory in Maryland. The cell stock solution was stored in liquid nitrogen. The karyotype of each batch of cell stock solution was identified, and tests confirmed that it was free from mycoplasma contamination. The number of passages after cell cloning will not exceed 15. Chinese hamster ovary cells were chosen because the cell line is recommended for use in OECD Guidelines for the Testing of Chemicals 487 and has been proven to be sensitive to a variety of clastogens/aneugens (Marilyn J. et al., 2006).\nMedium and cell growth conditions: Chinese hamster ovary cells were cultured in McCoy's 5A complete medium (McCoy's 5A complete medium supplemented with 10 vt % fetal bovine serum, 2 mM GlutaMAX™ medium, 100 units/mL penicillin, and 100 μg/mL streptomycin), and grown in a standard environment (a high-humidity incubator with a temperature of 37° C. and a CO2 concentration of 5%). The day before administration, CHO-WBL cells in exponential growth phase were inoculated onto an eight-well cell culture slide at a density of 8×10^3 cells/400 μL McCoy's 5A complete medium/well.\nMetabolic activation system: The in vitro metabolic activation system (Maron and Ames, 1983) contains a rat liver microsomal homogenate induced by β-naphthoflavone and phenobarbital (referred to as S9) and an NADPH-generating system (i.e., NADP disodium and isocitric acid trisodium). S9 was purchased from CHI Scientific, Inc. and stored in a −75° C. refrigerator prior to use. Preparation method for S9 homogenate: Male Sprague Dawley rats were intraperitoneally injected with a single dose of p-naphthoflavone and phenobarbital, followed by material preparation.\nPreparation of S9 metabolic activation system: NADP disodium salt and isocitric acid trisodium salt were first dissolved in serum-free medium to prepare a core solution, which was then filtered through a 0.22 µm filter to sterilize. Immediately before use, the S9 homogenate was thawed, and the components of the S9 metabolic activation system were mixed in the proportions shown in Table 2 below.\nDose exploration experiment: In the dose exploration experiment, 8 administration concentrations were established in each administration treatment series. For each concentration of the test substance, 1 well of cells was set up. According to the ICH S2 (R1) guidelines, when not limited by the solubility of the test substance in the solvent/medium or the cytotoxicity of the test substance, the recommended maximum concentration is 1 mM or 0.5 mg/mL, whichever is lower. However, when limited by solubility, the test maximum concentration is the minimum concentration at which a small amount of precipitate is visible in the medium under the microscope. To ensure that the upper limit of solubility in the medium can be reached, up to 4 concentrations with visible precipitate can be tested.", "values": [
      {"smiles": "CCN1C(=O)COc2cc(-c3cc(-c4cnnc5c4ncn5CC)ccc3F)c(OC)cc21", "note": "[Example 31, 4-Ethyl-7-(5-(7-ethyl-7H-imidazo[4,5-c]pyridazin-4-yl)-2-fluorophenyl)-6-methoxy-2H-benzo[b][1,4]oxazin-3(4H)-one]", "Results of in vitro micronucleus assay": "Negative"},
      {"smiles": "COc1cc2c(cc1-c1cc(-c3cnnc4c3ncn4C(C)C)ccc1F)OCC(=O)N2C", "note": "[Example 36, 7-(2-Fluoro-5-(7-isopropyl-7H-imidazo[4,5-c]pyridazin-4-yl)phenyl)-6-methoxy-4-methyl-2H-benzo[b][1,4]oxazin-3(4H)-one]", "Results of in vitro micronucleus assay": "Negative"},
      {"smiles": "CCn1cnc2c(-c3ccc(F)c(-c4cc5c(cc4OC)N(C)C(=O)CO5)c3)cnnc21", "note": "[Example 42, 7-(5-(7-Ethyl-7H-imidazo[4,5-c]pyridazin-4-yl)-2-fluorophenyl)-6-methoxy-4-methyl-2H-benzo[b][1,4]oxazin-3(4H)-one]", "Results of in vitro micronucleus assay": "Negative"},
      {"smiles": "CCn1cnc2c(-c3ccc(F)c(-c4cc5oc(=O)n(C)c5cc4OC)c3)cnnc21", "note": "[Example 87, 6-(5-(7-Ethyl-7H-imidazo[4,5-c]pyridazin-4-yl)-2-fluorophenyl)-5-methoxy-3-methylbenzo[d]oxazol-2(3H)-one]", "Results of in vitro micronucleus assay": "Negative"},
      {"smiles": "CCn1cnc2c(-c3ccc(F)c(-c4cc5c(cc4OC)N(C)C(=O)C5)c3)cnnc21", "note": "[Example 161, 5-(5-(7-Ethyl-7H-imidazo[4,5-c]pyridazin-4-yl)-2-fluorophenyl)-6-methoxy-1-methyldihydro-2-one]", "Results of in vitro micronucleus assay": "Negative"}
    ]}
  ]
}
